In the experiment the target is T1, Glutathione peroxidase 4 (Strep-hGPX4) (Homo sapiens, UniProt P36969).
T1 construct: gene GPX4
T1 sequence (P36969 28-197): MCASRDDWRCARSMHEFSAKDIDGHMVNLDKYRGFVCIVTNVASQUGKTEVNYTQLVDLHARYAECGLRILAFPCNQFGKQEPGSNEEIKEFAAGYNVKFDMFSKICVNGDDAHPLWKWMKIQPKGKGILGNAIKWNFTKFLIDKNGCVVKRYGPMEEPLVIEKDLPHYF
The experiment can be described thus: substrate turnover by isolated hGPX4, NADPH-coupled assay. The class given is biochemical.

In the case of `CC(C)(OO)c1ccccc1` [cumeneOOH, cumene hydroperoxide], the “substrate turnover by isolated hGPX4, NADPH-coupled assay” value is “All hydroperoxides except for H2O2 afforded the GPX4-dependent NADPH consumption in the assay system”.
In the case of `CC(C)(C)OO` [tBuOOH, tert-butyl hydroperoxide] it was “All hydroperoxides except for H2O2 afforded the GPX4-dependent NADPH consumption in the assay system”.

The values are drawn from PMC10985226, “A tangible method to assess native ferroptosis suppressor activity” (Cell Reports Methods, 2024).
